Legend:
Settings in all cases: 72 h
Caco-2 [1] = test: cell viability relative to DMSO; higher = less toxic
Calu-3 [2] = test: as above
HepG2 [3] = test: as above
U2OS [4] = test: as above
Vero E6 [5] = test: as above
Caco-2 [6] = test: relative viability EC50 (midpoint between 100% and the lowest measured viability); higher = less toxic
Calu-3 [7] = test: as above
HepG2 [8] = test: as above
U2OS [9] = test: as above
Vero E6 [10] = test: as above
Caco-2 [11] = test: drug sensitivity score (DSS) for viability; higher = more toxic; extreme values may be limits of the assay
Calu-3 [12] = test: as above
HepG2 [13] = test: as above
U2OS [14] = test: as above
Vero E6 [15] = test: as above

Compound	cell viability (Caco-2 [1]; 1 nM) [%]	cell viability (Caco-2 [1]; 10 nM) [%]	cell viability (Caco-2 [1]; 100 nM) [%]	cell viability (Caco-2 [1]; 1000 nM) [%]	cell viability (Caco-2 [1]; 10000 nM) [%]	cell viability (Calu-3 [2]; 1 nM) [%]	cell viability (Calu-3 [2]; 10 nM) [%]	cell viability (Calu-3 [2]; 100 nM) [%]	cell viability (Calu-3 [2]; 1000 nM) [%]	cell viability (Calu-3 [2]; 10000 nM) [%]	cell viability (HepG2 [3]; 1 nM) [%]	cell viability (HepG2 [3]; 10 nM) [%]	cell viability (HepG2 [3]; 100 nM) [%]	cell viability (HepG2 [3]; 1000 nM) [%]	cell viability (HepG2 [3]; 10000 nM) [%]	cell viability (U2OS [4]; 1 nM) [%]	cell viability (U2OS [4]; 10 nM) [%]	cell viability (U2OS [4]; 100 nM) [%]	cell viability (U2OS [4]; 1000 nM) [%]	cell viability (U2OS [4]; 10000 nM) [%]	cell viability (Vero E6 [5]; 1 nM) [%]	cell viability (Vero E6 [5]; 10 nM) [%]	cell viability (Vero E6 [5]; 100 nM) [%]	cell viability (Vero E6 [5]; 1000 nM) [%]	cell viability (Vero E6 [5]; 10000 nM) [%]	relative viability EC50 (Caco-2 [6]) [µM]	relative viability EC50 (Calu-3 [7]) [µM]	relative viability EC50 (HepG2 [8]) [µM]	relative viability EC50 (U2OS [9]) [µM]	relative viability EC50 (Vero E6 [10]) [µM]	drug sensitivity score (Caco-2 [11])	drug sensitivity score (Calu-3 [12])	drug sensitivity score (HepG2 [13])	drug sensitivity score (U2OS [14])	drug sensitivity score (Vero E6 [15])
CC#CCC(C)[C@H](O)/C=C/[C@@H]1[C@H]2C/C(=C/CCCC(=O)O)C[C@H]2C[C@H]1O (stereo not given in full) [iloprost]	92.2	105	100	95.2	105	99.3	96.8	85	91.5	103	97.8	90.6	106	97.1	98.2	96	101	93.3	98.4	94	96.2	101	97	98.8	99.3	> 10	> 10	> 10	> 10	> 10	0	0	0	0	0
C[C@H]1N=C(N(C)C)N=C(N)N1 [imeglimin]	86.3	88	96.2	97.3	97.6	97	114	96.9	104	104	96.4	96.7	97.7	99	100	99.7	105	96.9	102	103	92.5	96.2	92.8	101	105	> 10	> 10	> 10	> 10	> 10	0	0	0	0	0
COc1cc2c(cc1OC)CC(=O)N(CCCN(C)C[C@H]1Cc3cc(OC)c(OC)cc31)CC2 [ivabradine]	98.3	85.6	102	100	99.8	111	85.1	98.4	101	105	109	113	98.2	102	89.3	106	102	99.6	99.1	101	101	99.7	100	107	99.4	> 10	> 10	> 10	> 10	> 10	0	0	0	0	0
Nc1ccn([C@@H]2CS[C@H](CO)O2)c(=O)n1 [lamivudine]	83	100	89.3	88.7	84.5	107	89.6	89.4	96.9	97.6	93.9	93.4	98.8	99.1	106	96.9	102	97.7	102	97.1	102	105	97.4	85.8	99.2	> 10	> 10	> 10	> 10	> 10	0.7	0	0	0	0
O=C1N(c2ccccc2)c2ccccc2C1(Cc1ccncc1)Cc1ccncc1 [linopirdine]	91.4	93.2	88.3	98.8	93.1	92.4	98.5	98.9	103	97.2	111	102	94.9	105	102	94.6	101	98.7	103	98.7	106	97.3	106	96.9	99.2	> 10	> 10	> 10	> 10	> 10	0	0	0	0	0
Cc1nccc2[nH]c(=O)ccc12 [medorinone]	104	102	102	93.9	97.8	113	102	91	98.8	96.3	112	99.5	102	96.8	109	97.9	100	97.4	99.7	97.8	102	101	97	97.1	98.5	> 10	> 10	> 10	> 10	> 10	0	0	0	0	0
CC(=O)[C@H]1CC[C@H]2[C@@H]3C[C@H](C)C4=CC(=O)CC[C@]4(C)[C@H]3[C@@H](O)C[C@]12C [medrysone]	90.4	97.5	98.2	101	102	91.5	98.5	101	91.3	93.4	102	98.4	108	101	112	97.6	97.4	99.8	101	99.6	98	95	97.9	95.6	100	> 10	> 10	> 10	> 10	> 10	0	0	0	0	0
CN1c2c([nH]c(N)nc2=O)NC[C@@H]1CNc1ccc(C(=O)N[C@@H](CCC(=O)O)C(=O)O)cc1 [metafolin]	95.4	90.3	85.3	98.1	102	91.1	106	105	96.5	96.9	102	89.8	105	110	108	94.9	100	92.5	105	101	96.1	91.6	96.3	83.2	104	> 10	> 10	> 10	> 10	> 10	0	0	0	0	0
CC[C@@H](CO)NC(=O)[C@@H]1C=C2c3cccc4c3c(cn4C)C[C@H]2N(C)C1 [methysergide]	95.9	89.6	100	94.3	110	88.7	99.1	102	97	102	94.8	96.9	102	102	111	101	96.1	100	92.3	98.7	96	100	91.9	99.7	111	> 10	> 10	> 10	> 10	> 10	0	0	0	0	0
COCCc1ccc(OCC(O)CNC(C)C)cc1 (stereo not given) [metoprolol]	102	136	91.8	110	94.4	93.1	106	93.2	101	98.7	112	79.4	122	79.7	93.6	103	109	99	108	104	97.7	97.1	96.1	93.6	96.2	> 10	> 10	> 10	> 10	> 10	0	0	0	0	0
O=c1c(O)c(-c2cc(O)c(O)c(O)c2)oc2cc(O)cc(O)c12 [myricetin]	97.2	99.2	98.8	101	96	105	98.5	96	102	105	96.9	91.9	106	94.4	96.3	93.6	105	97.4	99.6	103	94.1	97.7	95.4	95.8	97.5	> 10	> 10	> 10	> 10	> 10	0	0	0	0	0
CCOc1ccc2ccccc2c1C(=O)N[C@@H]1C(=O)N2[C@@H]1SC(C)(C)[C@@H]2C(=O)O [nafcillin]	99	96.4	99.9	101	105	91.1	107	101	99.5	102	99.5	91.5	96.8	92.4	99.5	98.2	99.6	94.5	100	106	103	90.3	94.2	104	95.7	> 10	> 10	> 10	> 10	> 10	0	0	0	0	0
Oc1ccc2c3c1O[C@H]1c4oc5ccccc5c4C[C@@]4(O)[C@@H](C2)N(CC2CC2)CC[C@]314 [naltriben]	91.7	91.9	102	98.6	86.5	105	85.1	105	87.7	99.5	102	120	93.5	99.7	99	101	101	100	101	99.8	90.9	101	93.3	96.4	108	> 10	> 10	> 10	> 10	> 10	0.3	0	0	0	0
Oc1ccc2c3c1O[C@H]1c4[nH]c5ccccc5c4C[C@@]4(O)[C@@H](C2)N(CC2CC2)CC[C@]314 [naltrindole]	102	94.6	98.1	96.5	106	98.5	98.5	103	101	83.9	103	97.7	101	106	91.7	98.7	100	102	111	97.9	95.9	102	105	95.4	92.1	> 10	> 10	> 10	> 10	> 10	0	0.3	0	0	0
